In patent US20260272908A1 (VANDERBILT UNIVERSITY, priority 2023, published 2026):

Legend:
[1] = tested on: Meta4 organoids; experiment: FACS analysis of Meta4 organoids (7-AAD/annexin V; CD133/CD166); type: cell-based, mouse
[2] = tested on: CD133 and CD166; experiment: qRT-PCR of dysplastic stem cell markers in Meta4 organoids; type: cell-based, mouse; conditions: pyrvinium-treated vs DMSO
Method: FIG. 4D-4E show lusters of dysplastic stem cells (DSCs) differentiated cells or damaged cells in a superimposed UMAP plot (FIG. 4D) and their proportions in DMSO-treated and Pyr-treated Meta4 samples (FIG. 4E).
Total RNAs were extracted from Meta3 or Meta4 organoids using the Trizol (Invitrogen) reagent. cDNAs were synthesized using iScript gDNA clear cDNA synthesis kit (Bio-Rad) and RT-PCR was performed using SsoAdvanced™ Universal SYBR Green supermix (Bio-Rad) and a CFX96 Real-Time PCR Detection System (Bio-Rad). GAPDH, a house keeping gene, was used to normalize gene expression levels. All reactions were performed in triplicate and relative gene expression levels were obtained by the comparative ΔΔCt method using CFX Maestro software (Bio-Rad).

Cc1cc(/C=C/c2ccc3cc(N(C)C)ccc3[n+]2C)c(C)n1-c1ccccc1 [pyrvinium]
CD133^+CD166^+ DSCs (FACS) ([1]; pyrvinium-treated): significant decrease
7-AAD and Annexin V expression ([1]; pyrvinium-treated cells): increase
CD133 and CD166 gene expression [2]: decreases
